Test results as given in patent US12144819B2, “Pharmaceutical composition and use” (SpineThera, priority 2012, dated 2024).

How the values were obtained:
[1] = Epidural administration in canine subjects using fluoroscopically-guided injection; type: in vivo, beagles; conditions: for drug released in-vivo (elution profile): procedure A1 microparticles
Text: This exemplary approach is a modified version of that described by Cohen (vide supra). Male and female beagles can be acclimated and subjected to baseline neurologic and clinical chemistry examinations. Prior to treatment dogs can be anesthetized with propofol. The injection site can be shaved, and a 19-gauge epidural Touhy needle can be inserted at the L6-7 or L7-S1 interspace. A 22-gauge catheter can be threaded 8-10 cm to approximately the L2-L3 level. The position of the catheter can be verified by injection of contrast media under fluoroscopy. Two (2) mL of an aqueous suspension of microparticles, prepared according to procedure A1 above, can be injected over a period of about 2 minutes. After about 10 minutes the catheter can be removed. Before and after surgery, subject baseline measurements can be obtained, including, for example, temperature and specific behavioral measures (pain tolerance, reflex, mobility, etc.). Before injection, and every 2 days after injection for 84 days, heart rate, blood pressure in the tail, spinal reflexes, sensory and pain responses, proprioception, gait and movement, cranial nerve function, and fundoscopic examination data can be recorded to observe the safety of the injected pharmaceutical composition. Blood samples can be collected prior to injection, then at 1, 2, 4, 8, 24, and 72 hour intervals after injection, and every 7 days thereafter to analyze for the pharmaceutical agent and its metabolized forms. At scheduled intervals, necropsy and histopathology can be performed as described by Cohen, vide supra, in a sub-set of animals.
Without wishing to be bound by theory, pharmaceutical compositions of the type described herein are not expected to elicit any significant or appreciable degree of inflammatory response or cause necrosis. Histological examination may reveal the microparticles to be localized and agglomerated within the epidural space at the site of injection with no evidence of the presence of the injection vehicle after 2 about days. Contents of the treated epidural pocket can be recovered by dissection. The injected microparticles can be isolated from epidural tissue and assayed for drug concentration to determine an in-vivo elution profile. It can be reasonably expected that dexamethasone acetate will be released continuously over 12 weeks, with about 20% of the drug released in 3 days, 50% in 25 days, and 80% in 70 days, with complete microparticle polymer degradation in about 16 weeks.

[2] = In-vitro elution of the API from the microparticles in PBS; type: physicochemical
Method: In-vitro elution of the API from the microparticles can be determined by adding a known amount of the microparticles to 5 mL phosphate buffered saline (PBS) solution at a pH 7.4, and maintaining a constant temperature of 37° C. At selected time intervals, a 2 mL aliquot can be withdrawn through a 0.4 μm filter for analysis; the amount of the aliquot withdrawn can be replenished with an equal amount of preheated PBS. The concentration of the API in the aliquot can be determined according to known methods such as HPLC. Sampling intervals can be adjusted to maintain drug concentration below sink conditions in the test vials.

In the case of “9 alpha-fluoro-11-beta, 17-alpha, 21-trihydroxy-16 alpha-methylpregna-1,4-diene-3,20-dione 21-acetate [dexamethasone acetate]”, the “duration of continuous release in-vivo” value [1] is reported as 12 weeks, the “time to complete microparticle polymer degradation” value [1] is reported as “about 16 weeks” and the “drug released in-vivo (elution profile)” value ([1]; in 3 days) is reported as “about 20%”. For the same substance, the “drug released in-vivo (elution profile)” value ([1]; in 25 days) was ~50%, the “drug released in-vivo (elution profile)” value ([1]; in 70 days) was ~80% and the “duration of continuous release in-vitro” value [2] was 12 weeks. The drug released in-vitro ([2]; in 3 days) was “about 10%”, the drug released in-vitro ([2]; in 25 days) was ~25% and the drug released in-vitro ([2]; in 70 days) was ~40%.
